Measurements published in patent US5486511A, “4-amino-17β-(cyclopropyloxy)androst-4-en-3-one, 4-amino-17β-(cyclopropylamino)androst-4-en-3-one and related compounds as C17-20 lyase and 5α-reductase” (Merrell Dow Pharmaceuticals Inc., priority 1994, dated 1996).

Key:
nude mouse lyase = assay: Inhibition of athymic nude mouse steroid C17,20 lyase (testicular microsomes); assay type: biochemical; details: nude mouse; 0.01 μM; preincubation 40 min
Procedure: (§1) The activity of the present compounds as inhibitors of steroid C17,20 lyase was established using microsomal preparations of the steroid C17,20 lyase enzyme from human or laboratory animal testes. Human testes used for this purpose were obtained from therapeutic orchiectomies. Specifically, microsomes were isolated from human, cynomolgus monkey, dog, rat or athymic nude mouse testicular tissue. The compound to be tested was dissolved in dimethyl sulfoxide and diluted in 0.05M potassium phosphate buffer to give the desired concentrations of the test compound. The potassium phosphate buffer was at pH 7.4 for the human, monkey and dog lyase assays and at pH 7.2 for the rat and athymic nude mouse lyase assays. Assays also contained 1 mM NADPH, 5 mM glucose-6-phosphate, 1 IU/ml glucose-6-phosphate dehydrogenase (an NADPH regenerating system) and microsomal protein in a total volume of 0.2 mL. Control assays contained all components including dimethyl sulfoxide, but with no test compound. All assays were performed in duplicate. […] Radioactivity in the steroid peaks was measured by a Radiomatic Model HS Flo-One detector.
(§2) The enzyme activity for each incubate was calculated from the percent conversion of substrate to products, and the results were expressed as percent inhibition of control. […] The Ki and kinact for time dependent inhibitors were determined by graphical analysis of Kitz-Wilson plots. […]

[1] = test system: human prostatic tumor xenographs (PC-82); assay: Inhibition of human prostatic tumor growth (PC-82 xenografts in athymic mice); assay type: in vivo
Procedure: In this model, human prostatic tumor xenographs (PC-82) are grown in athymic mice. The tumors are serially transplantable, androgen-responsive, slow-growing (i.e. 20-30 days for tumor volume to double) and are moderately differentiated human prostatic adenocarcinoma. These tumors will regress following androgen ablation with a half-life of 18 days (van Weerden, W. M. et al., Prostate 23:149-164 (1993).
The above tumor model of androgen-dependent human prostatic cancer was utilized to evaluate 4-amino-17β-(cyclopropyloxy)androst-4-en-3-one for inhibition of prostatic tumor growth following daily oral treatment at 30 and 100 mg/kg/day (See Table 2). Two control groups were tested, including one which received only the delivery vehicle and another which were bilaterally castrated. Tumor volumes were measured three times per week using a digital caliper using the formula: V (mm^3)=d1 ×(d2)^2 /2 were d1 is the length and d2 the width. The relative percent change in tumor volume is based on the mean tumor volume of the vehicle control groups at week 0 being set equal to 100%.

canine lyase = assay: Inhibition of canine steroid C17,20 lyase (testicular microsomes); assay type: biochemical, dog; details: canine; 1 μM; preincubation 40 min
Procedure: as §1, §2

rat lyase = assay: Inhibition of rat steroid C17,20 lyase (testicular microsomes); assay type: biochemical; details: rat; 0.1 μM; preincubation 40 min
Procedure: as §1, §2

## C[C@]12CC[C@H]3[C@@H](CCC4=C(N)C(=O)CC[C@@]43C)[C@@H]1CC[C@@H]2OC1CC1 [Compound 2, 4-Amino-17β-(cyclopropyloxy)androst-4-en-3-one]
Nude mouse lyase
  % Inhibition: 84%
[1]; 30 mg/kg/day oral, 0 weeks
  Relative percent tumor volume compared to vehicle control at beginning of timed period: 105%
  Tumor volume: 541 ± 71 mm^3
[1]; 30 mg/kg/day oral, +2 weeks
  Relative percent tumor volume compared to vehicle control at beginning of timed period: 150%
  Tumor volume: 771 ± 108 mm^3
[1]; 30 mg/kg/day oral, +4 weeks
  Relative percent tumor volume compared to vehicle control at beginning of timed period: 253%
  Tumor volume: 1305 ± 309 mm^3
[1]; 100 mg/kg/day oral, 0 weeks
  Relative percent tumor volume compared to vehicle control at beginning of timed period: 83%
  Tumor volume: 426 ± 49 mm^3
[1]; 100 mg/kg/day oral, +2 weeks
  Relative percent tumor volume compared to vehicle control at beginning of timed period: 117%
  Tumor volume: 601 ± 66 mm^3
[1]; 100 mg/kg/day oral, +4 weeks
  Relative percent tumor volume compared to vehicle control at beginning of timed period: 163%
  Tumor volume: 840 ± 86 mm^3
[1]; daily oral treatment
  Inhibition of human prostatic tumor growth (in words): prolonged inhibition of human prostatic tumor growth
Canine lyase
  % Inhibition: 57%
Rat lyase
  % Inhibition: 70%
